Measurements: ChEMBL document CHEMBL1139948, “Design and synthesis of novel hydantoin-containing melanin-concentrating hormone receptor antagonists” (Bioorg Med Chem Lett, 2007)
Active and inactive are the calls of the source. No cut-off for these calls is given here.

How the values were obtained:
Mus musculus [1] = assay: Reduction of cumulative food intake in over-night fasted mouse at 10 mg/kg, ip after 3 hrs relative to control; format: functional, organism-based; parameters: dose 10 mg/kg
[2] = target: Melanin-concentrating hormone receptor 1 (Homo sapiens, UniProt Q99705); assay: Displacement of [125I][Phe13, Tyr19]MCH from human recombinant MCHR1 expressed in CHO cells; format: cell-based
Sequence of Melanin-concentrating hormone receptor 1 (Q99705 whole entry): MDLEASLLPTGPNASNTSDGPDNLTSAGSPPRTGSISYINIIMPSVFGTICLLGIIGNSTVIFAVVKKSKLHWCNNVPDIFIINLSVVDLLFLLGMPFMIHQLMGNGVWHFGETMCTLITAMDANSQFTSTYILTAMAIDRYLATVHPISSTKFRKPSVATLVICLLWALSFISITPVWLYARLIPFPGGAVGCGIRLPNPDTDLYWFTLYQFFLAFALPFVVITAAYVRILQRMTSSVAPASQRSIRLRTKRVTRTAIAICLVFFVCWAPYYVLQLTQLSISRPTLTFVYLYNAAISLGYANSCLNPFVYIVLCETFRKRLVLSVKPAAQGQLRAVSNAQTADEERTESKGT

[3] = target: 5-hydroxytryptamine receptor 2A (Homo sapiens, UniProt P28223); assay: Binding affinity to 5HT2A receptor
Sequence of 5-hydroxytryptamine receptor 2A (P28223 whole entry): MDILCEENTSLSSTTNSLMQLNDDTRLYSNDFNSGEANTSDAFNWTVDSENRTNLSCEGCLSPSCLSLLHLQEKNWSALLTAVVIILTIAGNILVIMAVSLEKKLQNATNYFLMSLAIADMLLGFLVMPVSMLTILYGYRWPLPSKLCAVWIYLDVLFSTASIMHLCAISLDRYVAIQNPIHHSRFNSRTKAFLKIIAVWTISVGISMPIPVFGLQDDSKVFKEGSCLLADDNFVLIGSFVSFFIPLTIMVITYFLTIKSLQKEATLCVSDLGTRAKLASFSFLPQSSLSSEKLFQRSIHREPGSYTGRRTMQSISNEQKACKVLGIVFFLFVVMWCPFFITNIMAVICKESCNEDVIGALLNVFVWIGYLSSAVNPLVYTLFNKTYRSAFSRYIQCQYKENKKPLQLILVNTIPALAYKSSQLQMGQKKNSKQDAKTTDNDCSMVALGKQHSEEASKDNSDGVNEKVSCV

[4] = target: T1, 5-hydroxytryptamine receptor 2C (Homo sapiens, UniProt P28335); assay: Binding affinity to 5HT2C receptor
T1 sequence (P28335 whole entry): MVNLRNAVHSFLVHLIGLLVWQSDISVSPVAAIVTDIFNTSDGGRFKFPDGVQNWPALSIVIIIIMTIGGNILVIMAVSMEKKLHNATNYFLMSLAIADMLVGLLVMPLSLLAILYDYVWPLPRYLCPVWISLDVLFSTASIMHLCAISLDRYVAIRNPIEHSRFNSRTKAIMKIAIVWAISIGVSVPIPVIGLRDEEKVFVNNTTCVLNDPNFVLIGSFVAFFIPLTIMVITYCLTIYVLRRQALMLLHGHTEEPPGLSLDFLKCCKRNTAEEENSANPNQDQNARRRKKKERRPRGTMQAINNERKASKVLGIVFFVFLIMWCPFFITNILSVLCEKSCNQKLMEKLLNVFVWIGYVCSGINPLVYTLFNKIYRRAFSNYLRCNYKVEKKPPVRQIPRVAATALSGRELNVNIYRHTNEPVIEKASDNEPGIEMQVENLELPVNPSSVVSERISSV

[5] = target: Melanin-concentrating hormone receptor 2 (Homo sapiens, UniProt Q969V1); assay: Binding affinity to MCHR2
Sequence of Melanin-concentrating hormone receptor 2 (Q969V1 whole entry): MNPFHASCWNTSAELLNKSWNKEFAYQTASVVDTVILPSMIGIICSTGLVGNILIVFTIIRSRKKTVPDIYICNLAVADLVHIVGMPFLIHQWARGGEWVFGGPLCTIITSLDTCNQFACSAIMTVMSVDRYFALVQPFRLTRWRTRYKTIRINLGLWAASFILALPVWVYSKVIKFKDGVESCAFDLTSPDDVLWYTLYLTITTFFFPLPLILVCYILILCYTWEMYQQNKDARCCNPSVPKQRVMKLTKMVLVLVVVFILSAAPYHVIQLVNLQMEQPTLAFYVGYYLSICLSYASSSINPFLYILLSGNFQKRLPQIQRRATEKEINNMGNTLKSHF

[6] = Binding affinity to L-verapamil site of calcium channel; parameters: species or system Homo sapiens
[7] = Permeability across human Caco-2 cell membrane; format: ADME, cell-based; details: read-out: permeability
Mus musculus [8] = assay: Reduction of cumulative food intake in over-night fasted mouse at 30 mg/kg, ip after 3 hrs relative to control; format: functional; parameters: scale not given: the % may be the effect or the level left; details: route intraperitoneal
Mus musculus [9] = assay: Antidepressant effect in mouse at 30 mg/kg, ip assessed as reduction in immobility duration after 30 mins by forced swimming test relative to control; format: functional; parameters: scale not given: the % may be the effect or the level left; details: route intraperitoneal
hERG (KCNH2) = hERG (KCNH2) (Homo sapiens, UniProt Q12809); assay: Inhibition of hERG-mediated current amplitude at 1 uM; format: toxicity
Sequence of hERG (KCNH2) (Q12809 whole entry): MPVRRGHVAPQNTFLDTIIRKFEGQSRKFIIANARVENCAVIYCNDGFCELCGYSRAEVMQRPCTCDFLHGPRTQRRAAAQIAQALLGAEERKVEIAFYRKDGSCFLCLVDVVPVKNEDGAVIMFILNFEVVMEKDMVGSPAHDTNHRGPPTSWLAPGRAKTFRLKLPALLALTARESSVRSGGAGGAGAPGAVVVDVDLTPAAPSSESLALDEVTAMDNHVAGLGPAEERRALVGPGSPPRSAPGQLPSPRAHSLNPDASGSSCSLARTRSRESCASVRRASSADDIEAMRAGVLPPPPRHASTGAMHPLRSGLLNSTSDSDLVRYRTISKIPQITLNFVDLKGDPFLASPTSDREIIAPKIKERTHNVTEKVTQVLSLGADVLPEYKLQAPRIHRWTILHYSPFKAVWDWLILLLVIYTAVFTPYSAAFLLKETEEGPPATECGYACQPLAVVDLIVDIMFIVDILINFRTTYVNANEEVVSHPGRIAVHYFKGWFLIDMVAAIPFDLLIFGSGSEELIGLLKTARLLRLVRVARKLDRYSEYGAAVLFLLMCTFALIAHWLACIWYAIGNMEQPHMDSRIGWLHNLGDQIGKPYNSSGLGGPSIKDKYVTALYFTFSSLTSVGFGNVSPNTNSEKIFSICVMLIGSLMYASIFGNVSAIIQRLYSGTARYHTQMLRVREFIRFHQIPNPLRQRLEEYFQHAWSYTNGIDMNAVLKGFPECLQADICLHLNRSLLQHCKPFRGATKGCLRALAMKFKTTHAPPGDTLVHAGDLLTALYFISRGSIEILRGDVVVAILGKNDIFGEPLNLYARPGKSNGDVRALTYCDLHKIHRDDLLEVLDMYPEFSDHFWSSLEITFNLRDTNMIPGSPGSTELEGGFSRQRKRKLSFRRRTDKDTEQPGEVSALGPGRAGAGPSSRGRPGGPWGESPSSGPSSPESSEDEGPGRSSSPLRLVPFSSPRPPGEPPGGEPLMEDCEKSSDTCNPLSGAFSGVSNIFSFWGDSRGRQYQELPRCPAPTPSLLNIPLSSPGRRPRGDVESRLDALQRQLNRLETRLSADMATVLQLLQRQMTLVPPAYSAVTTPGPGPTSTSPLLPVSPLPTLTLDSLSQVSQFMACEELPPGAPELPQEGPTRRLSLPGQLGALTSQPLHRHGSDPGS

Mus musculus [10] = assay: Toxicity in mouse at 10 to 100 mg/kg, ip by Irwins method; format: organism-based; parameters: dose 10-100 mg/kg, route intraperitoneal; details: in vivo
[11] = target: Muscarinic acetylcholine receptor M4 (Homo sapiens) (UniProt P08173); assay: Binding affinity to muscarinic M4 receptor
Mus musculus [12] = assay: Antidepressant effect in mouse at 10 mg/kg, ip assessed as reduction in immobility duration after 30 mins by forced swimming test relative to control; format: functional; parameters: scale not given: the % may be the effect or the level left; details: route intraperitoneal

Structure (SMILES) | Ki [2] | also measured
CC(C)CC(N(C)C)C1(c2ccc(Cl)cc2)CCC1 (centres undefined) | – | Activity (Mus musculus [1]): Active
CN(C)Cc1ccc(/C=C2\NC(=O)N(c3ccc(Oc4ccccc4)cc3)C2=O)cc1 | 341 nM | –
CN(C)CC1CCc2cc(NC(=O)c3ccc(-c4ccc(F)cc4)cc3)ccc2C1 (centres undefined) | 38 nM | –
COc1cc(N2CC(=O)N(c3ccc(-c4ccccc4)cc3)C2=O)ccc1OCCN1CCCC1 | 415 nM | –
COc1cc(NC(=O)c2ccc(Oc3ccccc3)cc2)ccc1OCCN1CCCC1 | 82 nM | –
O=C1N/C(=C\c2ccc(CN3CCN(Cc4ccccc4)CC3)cc2)C(=O)N1c1ccc(Oc2ccccc2)cc1 | > 5000 nM | –
CC(=O)N1CCN(Cc2ccc(/C=C3\NC(=O)N(c4ccc(Oc5ccccc5)cc4)C3=O)cc2)CC1 | 2060 nM | –
COc1cc(NC(=O)Nc2ccc(-c3ccccc3)cc2)ccc1OCCN1CCCC1 | 260 nM | –
O=C1N/C(=C\c2ccc(CN3CCN(c4ccccc4)CC3)cc2)C(=O)N1c1ccc(Oc2ccccc2)cc1 | > 5000 nM | –
O=C1N/C(=C\c2ccc(CN3CCCC3)cc2)C(=O)N1c1ccc(Oc2ccccc2)cc1 | 220 nM | Ki [3]: > 5000 nM; Ki [4]: > 10000 nM; Ki [5]: > 10000 nM; Ki [6]: 330 nM; Papp [7]: > 6 ×10⁻⁶ cm/s; Activity (Mus musculus [8]): 41%; Activity (Mus musculus [9]): -57%; inhibition at 1 µM (hERG (KCNH2)): 73%; Activity (Mus musculus [10]): Non-toxic
O=C1N/C(=C\c2ccc(CN3CCCCCC3)cc2)C(=O)N1c1ccc(Oc2ccccc2)cc1 | 357 nM | –
O=C1N/C(=C\c2ccc(CNC3CCCC3)cc2)C(=O)N1c1ccc(Oc2ccccc2)cc1 | > 5000 nM | –
O=C1N/C(=C\c2ccc(CNCc3ccccc3)cc2)C(=O)N1c1ccc(Oc2ccccc2)cc1 | > 5000 nM | –
COc1cc(N2CC(=O)N(c3ccc(Oc4ccccc4)cc3)C2=O)ccc1OCCN1CCCC1 | 164 nM | Ki [3]: 330 nM; Ki [4]: 880 nM; Activity (Mus musculus [8]): 51%; Ki [11]: 370 nM
CN(C)CCNCc1ccc(/C=C2\NC(=O)N(c3ccc(Oc4ccccc4)cc3)C2=O)cc1 | 707 nM | –
COc1cc(NC(=O)Nc2ccc(Oc3ccccc3)cc2)ccc1OCCN1CCCC1 | 101 nM | –
COc1cc(N2C(=O)CN(c3ccc(Oc4ccccc4)cc3)C2=O)ccc1OCCN1CCCC1 | 365 nM | –
COc1cc(N2C(=O)CN(c3ccc(-c4ccccc4)cc3)C2=O)ccc1OCCN1CCCC1 | > 5000 nM | –
COc1cc(Nc2nc(-c3ccc(Oc4ccccc4)cc3)cs2)ccc1OCCN1CCCC1 | 1000 nM | –
O=C1N/C(=C\c2ccc(CN3CCCCC3)cc2)C(=O)N1c1ccc(Oc2ccccc2)cc1 | > 5000 nM | –
O=C1N/C(=C\c2ccc(CN3CCOCC3)cc2)C(=O)N1c1ccc(Oc2ccccc2)cc1 | > 5000 nM | –
COc1cc(NC(=S)Nc2ccc(Oc3ccccc3)cc2)ccc1OCCN1CCCC1 | 1090 nM | –
O=C1N/C(=C\c2ccc(CN3CCC(O)C3)cc2)C(=O)N1c1ccc(Oc2ccccc2)cc1 (racemic) | 176 nM | Activity (Mus musculus [8]): 47%
COc1cc(NC(=O)c2ccc(-c3ccccc3)cc2)ccc1OCCN1CCCC1 | 25 nM | –
CN(C)CCCN1c2ccccc2CCc2ccccc21 [IMIPRAMINE] | – | Activity (Mus musculus [12]): -58%
